The text below walks through data of ChEMBL document CHEMBL3608284, “C4 phenyl aporphines with selective h5-HT(2B) receptor affinity” (Bioorg Med Chem Lett, 2015).

Assay [1] concerns the target 5-hydroxytryptamine receptor 7 (Homo sapiens) (UniProt P34969). Nature of the assay: Displacement of [3H]LSD from 5HT7 receptor (unknown origin) at 10 uM.
Assay [2] concerns the target Mu-type opioid receptor (Homo sapiens) (UniProt P35372). Nature of the assay: Binding affinity to MOR (unknown origin) at 10 uM.
Assay [3] deals with T1, 5-hydroxytryptamine receptor 2C (Homo sapiens) (UniProt P28335).
T1 sequence (whole entry): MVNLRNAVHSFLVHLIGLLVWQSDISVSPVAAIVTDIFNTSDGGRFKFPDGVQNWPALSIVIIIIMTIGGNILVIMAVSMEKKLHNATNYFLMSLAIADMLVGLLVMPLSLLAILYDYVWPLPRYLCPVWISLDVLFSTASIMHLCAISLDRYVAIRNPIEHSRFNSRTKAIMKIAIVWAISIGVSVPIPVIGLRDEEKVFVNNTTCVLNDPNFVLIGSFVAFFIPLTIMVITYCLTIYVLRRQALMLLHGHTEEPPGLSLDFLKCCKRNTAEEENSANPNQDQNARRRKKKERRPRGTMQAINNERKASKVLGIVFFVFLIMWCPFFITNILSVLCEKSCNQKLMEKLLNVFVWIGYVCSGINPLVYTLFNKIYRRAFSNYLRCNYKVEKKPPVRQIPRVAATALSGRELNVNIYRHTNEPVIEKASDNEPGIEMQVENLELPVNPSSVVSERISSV
The experiment in a line: Displacement of [3H]mesulergine from 5HT2C receptor (unknown origin) at 10 uM. (In general: Displacement assays read how much labelled ligand stays bound in the presence of the test substance.)

Assay [4] addresses Muscarinic acetylcholine receptor M2 (Homo sapiens) (UniProt P08172). The experiment in a line: Binding affinity to muscarinic M2 receptor (unknown origin) at 10 uM.
Assay [5] has as its target Alpha-1A adrenergic receptor (Homo sapiens) (UniProt P35348). The experiment in a line: Binding affinity to alpha1A adrenoceptor (unknown origin) at 10 uM.
The target in assay [6] is Histamine H2 receptor (Homo sapiens) (UniProt P25021). Nature of the assay: Binding affinity to histamine H2 receptor (unknown origin) at 10 uM.
Chain of Histamine H2 receptor (Homo sapiens) (P25021 whole entry): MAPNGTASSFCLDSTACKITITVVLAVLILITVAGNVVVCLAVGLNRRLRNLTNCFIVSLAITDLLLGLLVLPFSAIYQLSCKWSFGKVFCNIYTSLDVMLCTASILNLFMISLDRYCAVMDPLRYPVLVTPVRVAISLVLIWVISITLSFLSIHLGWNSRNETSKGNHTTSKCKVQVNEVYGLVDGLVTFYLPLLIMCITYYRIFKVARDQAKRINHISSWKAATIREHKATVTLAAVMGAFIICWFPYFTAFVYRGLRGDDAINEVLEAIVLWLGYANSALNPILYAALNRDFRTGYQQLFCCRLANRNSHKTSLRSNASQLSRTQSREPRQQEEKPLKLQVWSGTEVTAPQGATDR
Assay [7] addresses Muscarinic acetylcholine receptor M1 (Homo sapiens, UniProt P11229). Nature of the assay: Binding affinity to muscarinic M1 receptor (unknown origin).
Assay [8] concerns the target D(1B) dopamine receptor (Homo sapiens) (UniProt P21918). The experiment in a line: Binding affinity to dopamine D5 receptor (unknown origin) at 10 uM.
Assay [9] has as its target 5-hydroxytryptamine receptor 2A (Homo sapiens) (UniProt P28223). Nature of the assay: Displacement of [3H]ketanserin from 5HT2A receptor (unknown origin) at 10 uM.
Assay [10] addresses Sodium-dependent serotonin transporter (Homo sapiens) (UniProt P31645). Nature of the assay: Binding affinity to SERT (unknown origin) at 10 uM.
Assay [11] addresses D(4) dopamine receptor (Homo sapiens) (UniProt P21917). The experiment in a line: Binding affinity to dopamine D4 receptor (unknown origin) at 10 uM.
For assay [12], the target named is GABA-A receptor; agonist GABA site (Homo sapiens) (UniProt P14867+P47870+P28472+P48169+P34903+P18505+P47869+P31644+Q16445). The experiment in a line: Binding affinity to GABAA receptor (unknown origin) at 10 uM. The class given is protein-complex assay.
Assay [13] concerns the target Sigma non-opioid intracellular receptor 1 (Homo sapiens) (UniProt Q99720). Nature of the assay: Binding affinity to sigma-1 receptor (unknown origin) at 10 uM.
Assay [14] concerns the target Beta-2 adrenergic receptor (Homo sapiens) (UniProt P07550). Nature of the assay: Binding affinity to beta2 adrenoceptor (unknown origin) at 10 uM.
Assay [15] concerns the target Muscarinic acetylcholine receptor M5 (Homo sapiens) (UniProt P08912). The experiment in a line: Binding affinity to muscarinic M5 receptor (unknown origin) at 10 uM.

Chain of D(1B) dopamine receptor (Homo sapiens) (P21918 whole entry): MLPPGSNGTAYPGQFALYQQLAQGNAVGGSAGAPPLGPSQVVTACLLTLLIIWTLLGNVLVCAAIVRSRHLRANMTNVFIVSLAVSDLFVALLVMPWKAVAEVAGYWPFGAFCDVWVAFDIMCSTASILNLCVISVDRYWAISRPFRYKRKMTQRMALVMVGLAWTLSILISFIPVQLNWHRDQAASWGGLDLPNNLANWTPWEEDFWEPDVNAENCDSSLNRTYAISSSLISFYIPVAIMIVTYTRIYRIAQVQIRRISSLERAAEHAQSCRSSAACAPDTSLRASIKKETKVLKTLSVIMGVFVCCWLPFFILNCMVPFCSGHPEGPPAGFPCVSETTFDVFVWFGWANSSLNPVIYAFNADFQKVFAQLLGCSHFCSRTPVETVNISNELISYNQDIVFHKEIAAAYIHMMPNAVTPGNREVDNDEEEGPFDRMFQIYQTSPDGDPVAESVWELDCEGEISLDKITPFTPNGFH
Chain of 5-hydroxytryptamine receptor 2A (Homo sapiens) (P28223 whole entry): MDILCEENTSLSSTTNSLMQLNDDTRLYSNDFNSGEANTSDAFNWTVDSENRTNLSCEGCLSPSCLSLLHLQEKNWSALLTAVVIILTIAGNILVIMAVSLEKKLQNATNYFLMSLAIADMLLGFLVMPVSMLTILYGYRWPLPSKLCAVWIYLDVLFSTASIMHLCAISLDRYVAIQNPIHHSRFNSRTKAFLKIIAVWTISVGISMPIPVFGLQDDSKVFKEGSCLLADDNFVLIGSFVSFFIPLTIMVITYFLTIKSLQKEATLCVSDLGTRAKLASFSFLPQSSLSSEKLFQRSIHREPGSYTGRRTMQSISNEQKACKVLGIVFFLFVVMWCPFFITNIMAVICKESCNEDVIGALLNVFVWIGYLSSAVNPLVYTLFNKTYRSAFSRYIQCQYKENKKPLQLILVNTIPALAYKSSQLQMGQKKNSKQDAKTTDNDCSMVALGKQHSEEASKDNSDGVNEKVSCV
Chain of 5-hydroxytryptamine receptor 7 (Homo sapiens) (P34969 whole entry): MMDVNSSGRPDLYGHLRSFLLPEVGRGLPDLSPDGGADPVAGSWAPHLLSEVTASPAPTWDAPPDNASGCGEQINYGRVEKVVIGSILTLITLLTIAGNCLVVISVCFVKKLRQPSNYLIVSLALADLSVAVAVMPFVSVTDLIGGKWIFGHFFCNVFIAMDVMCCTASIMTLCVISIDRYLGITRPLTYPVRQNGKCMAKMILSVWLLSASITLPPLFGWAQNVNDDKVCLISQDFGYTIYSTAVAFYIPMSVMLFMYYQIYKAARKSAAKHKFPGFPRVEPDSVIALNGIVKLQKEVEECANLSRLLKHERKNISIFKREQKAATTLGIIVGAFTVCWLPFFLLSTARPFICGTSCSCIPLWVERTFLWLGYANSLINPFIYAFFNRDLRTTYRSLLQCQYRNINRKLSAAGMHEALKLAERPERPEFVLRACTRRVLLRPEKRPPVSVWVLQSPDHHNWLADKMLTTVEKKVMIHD
Chain of Muscarinic acetylcholine receptor M1 (P11229 whole entry): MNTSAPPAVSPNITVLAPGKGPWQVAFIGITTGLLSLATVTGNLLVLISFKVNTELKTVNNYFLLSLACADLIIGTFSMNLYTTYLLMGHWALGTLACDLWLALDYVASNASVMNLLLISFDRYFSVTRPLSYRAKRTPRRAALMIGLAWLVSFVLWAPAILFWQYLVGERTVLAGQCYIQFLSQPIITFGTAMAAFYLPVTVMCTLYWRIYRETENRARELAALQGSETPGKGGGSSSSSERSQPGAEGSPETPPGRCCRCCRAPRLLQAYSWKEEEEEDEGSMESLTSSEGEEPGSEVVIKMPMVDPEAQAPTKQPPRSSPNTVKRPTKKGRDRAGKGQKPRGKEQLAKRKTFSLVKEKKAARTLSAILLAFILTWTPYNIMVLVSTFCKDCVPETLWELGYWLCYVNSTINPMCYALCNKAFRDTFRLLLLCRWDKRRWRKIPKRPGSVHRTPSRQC
Chain of Alpha-1A adrenergic receptor (Homo sapiens) (P35348 whole entry): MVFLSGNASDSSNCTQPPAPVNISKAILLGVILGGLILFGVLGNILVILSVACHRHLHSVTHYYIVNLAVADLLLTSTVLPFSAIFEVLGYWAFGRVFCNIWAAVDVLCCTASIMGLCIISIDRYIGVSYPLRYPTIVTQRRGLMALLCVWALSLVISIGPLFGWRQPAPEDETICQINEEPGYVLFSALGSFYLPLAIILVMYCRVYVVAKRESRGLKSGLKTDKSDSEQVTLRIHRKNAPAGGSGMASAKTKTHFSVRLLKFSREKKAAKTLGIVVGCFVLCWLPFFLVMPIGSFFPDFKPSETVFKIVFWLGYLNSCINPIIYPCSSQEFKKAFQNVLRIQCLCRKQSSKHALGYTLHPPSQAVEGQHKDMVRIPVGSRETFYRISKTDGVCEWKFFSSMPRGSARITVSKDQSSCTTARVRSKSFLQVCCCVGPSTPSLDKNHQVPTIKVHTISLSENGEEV
Chain of Sodium-dependent serotonin transporter (Homo sapiens) (P31645 whole entry, looked up): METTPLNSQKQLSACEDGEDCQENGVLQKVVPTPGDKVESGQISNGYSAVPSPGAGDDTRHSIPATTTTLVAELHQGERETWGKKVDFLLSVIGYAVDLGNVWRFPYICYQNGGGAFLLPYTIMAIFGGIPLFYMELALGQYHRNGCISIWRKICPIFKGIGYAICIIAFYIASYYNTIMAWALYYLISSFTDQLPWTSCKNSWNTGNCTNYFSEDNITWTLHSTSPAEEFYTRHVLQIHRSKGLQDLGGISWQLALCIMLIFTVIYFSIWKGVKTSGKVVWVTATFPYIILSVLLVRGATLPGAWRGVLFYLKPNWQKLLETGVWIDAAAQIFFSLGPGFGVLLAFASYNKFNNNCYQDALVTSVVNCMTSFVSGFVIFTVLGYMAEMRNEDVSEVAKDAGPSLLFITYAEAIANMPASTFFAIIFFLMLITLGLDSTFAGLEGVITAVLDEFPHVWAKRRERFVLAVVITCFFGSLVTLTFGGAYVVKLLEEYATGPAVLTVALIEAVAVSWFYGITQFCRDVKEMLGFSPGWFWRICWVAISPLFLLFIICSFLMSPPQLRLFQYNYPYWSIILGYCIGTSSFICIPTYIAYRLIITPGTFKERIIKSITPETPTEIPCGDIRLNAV
Chain of Mu-type opioid receptor (Homo sapiens) (P35372 whole entry): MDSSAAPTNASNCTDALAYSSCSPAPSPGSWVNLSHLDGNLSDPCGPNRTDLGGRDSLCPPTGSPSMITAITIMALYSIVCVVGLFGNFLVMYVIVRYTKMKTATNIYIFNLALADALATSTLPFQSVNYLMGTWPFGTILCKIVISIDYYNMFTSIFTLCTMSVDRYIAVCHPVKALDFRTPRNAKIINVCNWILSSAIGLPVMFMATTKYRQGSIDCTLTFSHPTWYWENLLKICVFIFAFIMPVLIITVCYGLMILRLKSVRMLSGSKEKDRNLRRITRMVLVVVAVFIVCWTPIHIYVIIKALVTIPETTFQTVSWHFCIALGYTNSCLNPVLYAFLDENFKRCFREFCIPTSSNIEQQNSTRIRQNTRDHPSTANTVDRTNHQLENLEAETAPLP
Chain of D(4) dopamine receptor (Homo sapiens) (P21917 whole entry): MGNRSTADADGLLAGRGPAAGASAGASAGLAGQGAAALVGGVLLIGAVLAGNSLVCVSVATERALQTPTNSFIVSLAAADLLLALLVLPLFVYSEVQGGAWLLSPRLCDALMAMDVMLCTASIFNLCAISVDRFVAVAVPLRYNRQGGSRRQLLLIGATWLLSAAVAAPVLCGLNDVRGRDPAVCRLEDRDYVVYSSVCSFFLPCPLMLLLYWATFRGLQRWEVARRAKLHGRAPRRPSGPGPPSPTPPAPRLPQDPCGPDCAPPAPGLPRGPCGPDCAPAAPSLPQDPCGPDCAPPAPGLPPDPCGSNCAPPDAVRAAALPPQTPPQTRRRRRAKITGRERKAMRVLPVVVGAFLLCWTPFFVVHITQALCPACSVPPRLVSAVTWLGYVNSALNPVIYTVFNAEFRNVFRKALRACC
Chain of Muscarinic acetylcholine receptor M5 (Homo sapiens) (P08912 whole entry): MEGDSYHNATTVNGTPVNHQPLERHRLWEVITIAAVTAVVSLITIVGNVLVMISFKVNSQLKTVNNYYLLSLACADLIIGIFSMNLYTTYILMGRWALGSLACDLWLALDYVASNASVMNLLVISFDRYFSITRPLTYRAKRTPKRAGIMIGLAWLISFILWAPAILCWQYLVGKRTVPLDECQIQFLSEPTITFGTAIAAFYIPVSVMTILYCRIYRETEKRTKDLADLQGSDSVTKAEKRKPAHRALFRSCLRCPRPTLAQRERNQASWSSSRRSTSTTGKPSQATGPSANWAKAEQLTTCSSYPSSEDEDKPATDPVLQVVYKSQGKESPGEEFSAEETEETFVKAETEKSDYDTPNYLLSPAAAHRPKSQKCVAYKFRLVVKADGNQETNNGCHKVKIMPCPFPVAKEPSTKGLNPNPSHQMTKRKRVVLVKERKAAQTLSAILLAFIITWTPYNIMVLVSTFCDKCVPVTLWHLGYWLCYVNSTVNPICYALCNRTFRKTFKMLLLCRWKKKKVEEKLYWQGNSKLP
Chain of Sigma non-opioid intracellular receptor 1 (Homo sapiens) (Q99720 whole entry): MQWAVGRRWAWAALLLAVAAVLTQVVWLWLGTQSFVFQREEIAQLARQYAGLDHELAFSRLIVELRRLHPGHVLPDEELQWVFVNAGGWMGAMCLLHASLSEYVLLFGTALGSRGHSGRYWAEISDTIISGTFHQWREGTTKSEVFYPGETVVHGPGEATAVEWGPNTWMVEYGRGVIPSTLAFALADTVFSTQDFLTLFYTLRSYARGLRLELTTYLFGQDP

By inhibition is commonly meant the share of the control response that was lost under treatment. A low value points to a weak effect. What is called Ki is the equilibrium dissociation constant of an inhibitor or competing ligand from its target. A low value points to higher affinity. Consider `COc1cc2c3c(c1OC)-c1cc4c(cc1CC3N(C)CC2c1ccccc1)OCO4` (stereo not given), for which the inhibition in [1] is 36.1%; in [2], under 50%; in assay [3] it was 31.9%; in assay [4], under 50%; in assay [5] it was under 50%; in assay [6], under 50%. The inhibition in assay [8] is under 50%; in assay [9], 33.5%; in assay [10], under 50%; in assay [11], under 50%; in assay [12], under 50%; in assay [13] it was under 50%. The inhibition in assay [14] and in [15] was under 50% in each case. Further, the Ki in assay [7] was over 10 µM.
